In patent US6121241A, “Anticoagulant peptide aldehyde derivatives” (Gyogyszerkutato Intezet Kft., priority 1996, dated 2000):
Read-outs that look alike come from different tables or passages of the source.

Assays:
[1] = tested on: activated partial thromboplastin time (APTT); test: Ex vivo APTT in citrate plasma of rabbits after p.o. dosing; parameters: species or system New Zealand white rabbits; settings: p.o. 5 mg/kg
Description: (§1) The anticoagulant and platelet aggregation inhibiting effect of the compounds of general formula (I) was studied In New Zealand white rabbits ex vivo according to D. Bagdy et al [Thromb. Haemost 67. 357 (1992). The compounds were dissolved in buffered isotonic saline solution and administered i.v. (0,04-5.0 mg/kg) or by infusion (0.25-5.0 mg/kg/h) or subcutaneously (0.5-6.0 mg/kg) or p.o. (2.5-20 mg/kg). The effect of the compounds was detectable already within 30 minutes following p.o. administration, peak values were attained after 60-180 minutes and the therapeutic level was maintained dose-dependently for 3→6 hours.
(§2) The in vivo effect of D-cHga Pro-Arg-H (1) is presented in detail in Tables 5 and 6. The corresponding values of C1 are listed as controls. The compound was administered p.o. in doses of 5 mg/kg. The blood samples drawn from the caudal vein in every 30-60 minutes were analyzed. The whole blood clotting time (WBCT) and the inhibition of thrombin-induced blood platelet aggregation (PAI) were determined. The activated partial thromboplastin time (APTT) and the thrombin time (TT) in the citrate plasma obtained from the blood sample were also measured. The APTT and TT values are compiled in Table 5 and the WBCT and PAI values in Table 6.

plasmin (PL) = plasmin (PL) (Homo sapiens, UniProt P00747); test: Fibrin-plate method, plasmin; format: biochemical; settings: for IC50: fibrin-plate method, hydrolyzed area reduced by 50%
Source text: (§3) The inhibitory effect of the new compounds of the invention on plasmin (PL) as well as on plasmin formation induced by tissue plasminagen activator (tPA) and urokinase (UK) was studied by the […] [D. Bagdy et al.; Thromb. Haemost. 67, 325 (1992)]. Compounds C1 and C3 served as controls. […] V. Jackson et al., J. Cardiovasc. Pharmacol. 21, 587 (1993)].
(§4) ^a IC50 = peptide concentration (mM) where the hydrolyzed area o
(§5) the fibrin plate is reduced by 50% compared to the control

[2] = target: tissue plasminogen activator (tPA) (Homo sapiens, UniProt P00750); test: Fibrin-plate method, plasmin formation induced by tPA; format: biochemical; settings: for IC50: fibrin-plate method, hydrolyzed area reduced by 50%
Source text: as §3, §4, §5

urokinase (UK) = urokinase (UK) (Homo sapiens, UniProt P00749); test: Fibrin-plate method, plasmin formation induced by urokinase; format: biochemical; settings: for IC50: fibrin-plate method, hydrolyzed area reduced by 50%
Source text: as §3, §4, §5

[3] = tested on: citrate plasma coagulation (PT); test: Prothrombin time (PT) plasma clotting test; format: biochemical
Description: Anticoagutant activity (i.e. inhibition of the proteolytic reactions in the process) is measured by anticoagulant tests, e.g. by the thrombin time (TT), activated partial thromboplastin time (APTT) and prothrombin time (PT) tests [E. J. W. Bovie et al; Mayo Clinic Laboratory Manual of Hemostasis; W. B. Sanuders Co., Philadelphia (1971)]. Plasma, inhibited in spontaneous coagulation, e.g. citrate-plasma, is made to coagulate and the required coagulation time is measured. Upon the action of anticoagulants the coagulation time is prolonged proportionally to the inhibition of the reaction(s) in the process. The anticoagulant effect can be characterized by the substance concentration required to double the coagulation time compared to the control (IC50). The effect of anticoagulants on individual coagulant proteases is measured by the amidolytic method [R. Lottenberg et al., Methods in Enzymol. 80, 341 (1981); G. Cleason, Blood Coagulation and Fibrinolysis 5, 411 (1994)]. The isolated active factor (e.g. thrombin, fXa) and its chromogen or fluorogen peptide-amide substrate are reacted in the presence or absence of the inhibitor, resp. The enzyme inhibiting action is characterized by the inhibitory constant (IC50) measured during amidolysis.
In the TT test coagulation is initiated by the thrombin added to the citrate plasma. In the system 22 pmol/mL of thrombin is functioning and in the presence of plasma components its inhibition can be measured on the fibrinogen (one of the natural substrates of thrombin) present In the APTT and PT tests the full coagulation process is made to proceed. Depending on the activator fX is activated by the extrinsic or intrinsic pathway. The generated fXa activates prothrombin to thrombin which, in turn, triggers plasma coagulation. In the test the coagulation time is prolonged if the enzymes or one of them is inhibited by the inhibitor. In the APTT and PT tests at most 40 pmole/ml Xa is generated (this is the full amount of factor X present in both systems) while 150 pmole/ml (APTT) and 350 pmole/ml (PT) are generated from thrombin [B Kaiser et al., Thromb. Res. 65, 157 (1992)].
The in vitro anticoagulant effect of the compounds of general formula (I) was measured by the prothrombin time (PT), activated partial thromboplastin time (APTT) and thrombin time (TT) tests [D. Bagdy et at., Thromb. Haemost. 67, 325 (1992)]. The Xa-factor-inhibiting effect of the compounds was also determined by using the Bz-Ile-Glu-Gly-Arg-pNA chromogen substrate (see method M6).

[4] = tested on: thrombin-induced blood platelet aggregation; test: Ex vivo inhibition of thrombin-induced blood platelet aggregation (PAI) in rabbits after p.o. dosing; parameters: species or system New Zealand white rabbits; settings: p.o. 5 mg/kg
Description: as §1, §2

[5] = related to the activity of C1 (1/IC50 = 1)
[6] = Table 2, concentration doubling clotting time, read-out: A: IC50, PT

tissue plasminogen activator (tPA), sequence (P00750 36-562, species assumed): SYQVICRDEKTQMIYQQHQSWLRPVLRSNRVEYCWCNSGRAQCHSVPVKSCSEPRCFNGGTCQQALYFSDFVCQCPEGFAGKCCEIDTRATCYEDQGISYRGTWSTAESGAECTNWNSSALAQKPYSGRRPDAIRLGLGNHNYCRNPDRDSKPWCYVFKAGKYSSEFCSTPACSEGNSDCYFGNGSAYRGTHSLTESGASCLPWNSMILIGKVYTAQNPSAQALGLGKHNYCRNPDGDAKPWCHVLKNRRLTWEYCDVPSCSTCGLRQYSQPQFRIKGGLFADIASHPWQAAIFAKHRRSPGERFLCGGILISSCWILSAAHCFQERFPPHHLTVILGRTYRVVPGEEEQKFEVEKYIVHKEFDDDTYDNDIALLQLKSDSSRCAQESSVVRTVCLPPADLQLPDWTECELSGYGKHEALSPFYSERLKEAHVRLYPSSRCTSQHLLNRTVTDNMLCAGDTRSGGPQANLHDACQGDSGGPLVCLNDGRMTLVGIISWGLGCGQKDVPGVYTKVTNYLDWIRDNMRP
plasmin (PL), sequence (P00747 581-810 limits assumed, species assumed): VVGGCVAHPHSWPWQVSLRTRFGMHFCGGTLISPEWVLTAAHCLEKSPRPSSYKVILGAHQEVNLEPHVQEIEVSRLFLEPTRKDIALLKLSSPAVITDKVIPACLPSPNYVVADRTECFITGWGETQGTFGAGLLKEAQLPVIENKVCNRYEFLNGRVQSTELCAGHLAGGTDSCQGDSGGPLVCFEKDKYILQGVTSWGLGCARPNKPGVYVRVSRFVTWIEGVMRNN
plasmin (PL), sequence (P00747 97-580 partner limits assumed, species assumed): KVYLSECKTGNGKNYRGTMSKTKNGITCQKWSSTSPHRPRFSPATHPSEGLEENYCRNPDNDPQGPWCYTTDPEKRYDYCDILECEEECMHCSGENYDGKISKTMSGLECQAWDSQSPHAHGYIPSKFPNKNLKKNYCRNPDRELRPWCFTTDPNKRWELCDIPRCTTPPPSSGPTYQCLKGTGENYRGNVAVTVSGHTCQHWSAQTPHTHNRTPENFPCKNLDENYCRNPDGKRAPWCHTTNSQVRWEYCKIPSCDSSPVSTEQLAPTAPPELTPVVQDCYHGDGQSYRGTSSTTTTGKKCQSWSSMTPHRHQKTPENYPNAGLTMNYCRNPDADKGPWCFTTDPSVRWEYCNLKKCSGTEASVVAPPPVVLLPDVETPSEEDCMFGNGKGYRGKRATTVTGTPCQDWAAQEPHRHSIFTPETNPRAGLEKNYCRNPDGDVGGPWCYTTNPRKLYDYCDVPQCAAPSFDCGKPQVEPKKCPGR

Row | SMILES | APTT relative clotting time ([1]; 0 min) | APTT relative clotting time ([1]; 30 min) | APTT relative clotting time ([1]; 45 min) | APTT relative clotting time ([1]; 60 min) | APTT relative clotting time ([1]; 90 min) | APTT relative clotting time ([1]; 120 min) | APTT relative clotting time ([1]; 180 min) | APTT relative clotting time ([1]; 240 min) | APTT relative clotting time ([1]; 300 min) | IC50 (plasmin (PL)) | IC50 [2] | IC50 (urokinase (UK)) | IC50 [3, 6] | PAI(%) ([4]; 0 min) | PAI(%) ([4]; 30 min) | PAI(%) ([4]; 45 min) | PAI(%) ([4]; 60 min) | PAI(%) ([4]; 90 min) | PAI(%) ([4]; 120 min) | PAI(%) ([4]; 180 min) | also measured
1 | CN[C@H](Cc1ccccc1)C(=O)N1CCC[C@H]1C(=O)N[C@H](C=O)CCCNC(=N)N [Compound C1, D-MePhe-Pro-Arg-H] | 1.0 | 1.27 ± 0.38 | 1.30 ± 0.02 | 1.37 ± 0.03 | 1.45 ± 0.09 | 1.43 ± 0.11 | 1.39 ± 0.09 | 1.31 ± 0.11 | 1.25 ± 0.22 | 54 µM | 132 µM | 82 µM | 2.92 µM | 0% | 52.8 ± 14.7% | 58.4 ± 15.6% | 54.2 ± 11.6% | 83.2 ± 8.9% | 75.2 ± 12.3% | 47.5 ± 20.9% | B: relative efficacy, PL (plasmin (PL); [5]): 1.0; B: relative efficacy, tPA [2, 5]: 1.0; B: relative efficacy, UK (urokinase (UK); [5]): 1.0; IC50 ([3]; read-out: concentration doubling the clotting time in the PT test): 2.92 µM; PAI(%) ([4]; 240 min): 32.2 ± 16.0%
2 | N=C(N)NCCC[C@@H](C=O)NC(=O)[C@H]1CCCN1C(=O)C(O)C1CCCCCC1.N=C(N)NCCC[C@@H](C=O)NC(=O)[C@H]1CCCN1C(=O)C(O)C1CCCCCC1.O=S(=O)(O)O (stereo partly drawn) [Compound 1, D-2-Cycloheptyl-2-hydroxyacetyl-L-prolyl-L-arginine aldehyde hemisulfate] | 1.0 | 2.01 ± 0.43 | 2.25 ± 0.43 | 2.32 ± 0.43 | 2.11 ± 0.31 | 1.84 ± 0.11 | 1.66 ± 0.10 | 1.37 ± 0.08 | 1.31 ± 0.09 | 83 µM | 74 µM | 120 µM | 1.2 µM | 0% | 71.0 ± 19.4% | 74.0 ± 13.9% | 91.0 ± 4.5% | 93.0 ± 3.5% | 92.4 ± 6.5% | 71.6 ± 19.8% | B: relative efficacy, PL (plasmin (PL)): 0.6; times lower activity than compound C3, first enzyme (PL) (plasmin (PL); versus C3 of Table 4): 7.5; B: relative efficacy, tPA [2]: 1.8; times lower activity than compound C3, second enzyme (tPA) ([2]; versus C3 of Table 4): 12; B: relative efficacy, UK (urokinase (UK)): 0.7; times lower activity than compound C3, third enzyme (UK) (urokinase (UK); versus C3 of Table 4): 39; PAI(%) ([4]; 240 min): 49.4 ± 21.5%
